Measurements from publication PMC11053447, “Human ABC and SLC Transporters: The Culprit Responsible for Unspecific PSMA-617 Uptake?” (Pharmaceuticals, 2024).
Like-named read-outs stand apart in the source and are kept apart here.

Columns and labels:
[1] = biological target: T1, human MATE1 (Homo sapiens, UniProt Q96FL8); test: SLC transporter substrate assay, MDCKII-MATE1-Fin vs control MDCKII-CAT-Fin cells
T1 sequence (Q96FL8 1-570): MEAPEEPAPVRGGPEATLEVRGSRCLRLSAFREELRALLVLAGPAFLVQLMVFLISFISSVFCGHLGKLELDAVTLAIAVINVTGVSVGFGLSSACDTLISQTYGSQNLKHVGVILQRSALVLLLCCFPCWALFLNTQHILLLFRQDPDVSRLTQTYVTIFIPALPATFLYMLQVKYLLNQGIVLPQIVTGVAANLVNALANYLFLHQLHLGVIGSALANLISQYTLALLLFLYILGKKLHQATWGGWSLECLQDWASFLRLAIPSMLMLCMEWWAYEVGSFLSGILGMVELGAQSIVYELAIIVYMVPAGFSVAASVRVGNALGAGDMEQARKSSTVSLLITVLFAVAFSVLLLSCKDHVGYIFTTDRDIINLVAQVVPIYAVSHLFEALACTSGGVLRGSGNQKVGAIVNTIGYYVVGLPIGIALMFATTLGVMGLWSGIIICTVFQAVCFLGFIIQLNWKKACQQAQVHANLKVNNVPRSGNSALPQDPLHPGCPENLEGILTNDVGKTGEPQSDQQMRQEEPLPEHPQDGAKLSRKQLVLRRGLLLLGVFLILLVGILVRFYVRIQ
Protocol: The described cells were plated onto standard 24-well tissue culture plates at densities of 5 × 10^5 cells/well. […] Before starting the experiment, the cells were prepared by removing the medium and washing the cells twice with 300 µL of assay buffer. […] The cells were lysed by adding 300 µL of 0.1N NaOH, they were incubated for 10 min at 37 °C and 100 µL samples were taken from all the wells.
The amount of protein in each well was quantified using the BCA kit for protein determination (Sigma-Aldrich, St Louis, MO, USA). Positive controls were performed using a separate 96-well plate format according to Table S8 in SI4.
SI4. Results of transporter substrate assays (SLC)
Table S8: Parameters of positive controls, control cell lines and plating for SLC transporters assays.
KH: Krebs-Henseleit buffer, HBSS: Hank's balanced salt solution, MES: 2 -(N-morpholino) ethanesulfonic acid, cGMP:
Guanosine cyclic phosphate, E3S: Estrone -3-sulfate, Gly-Sar: Glycylsarcosine, MPP+: 1-methyl-4-phenylpyridinium.
Calculation of fold accumulation values for SLC transporter substrate assays The fold accumulation value was defined as the ratio of uptake of the test substance (TS) or probe substrate into transfected and control cells. If the fold accumulation is > 2 and can be inhibited by a known inhibitor of the transporter, the test substance can be considered as a substrate of the respective transporter.
Fold accumulation = UPTTRP
• UPTTRP: accumulated amount of test substance (TS) or probe substrate in transfected cells normalized by protein content […]
• UPTCTRL: accumulated amount of test substance (TS) or probe substrate in control cells normalized by protein content […]
4.1 Multidrug and toxin extrusion protein MATE1
(MDCKII-MATE1-Fin) and control cells (MDCKII-CAT-Fin) applying 2- and 20-minute incubation periods, measured in SLC transporter substrate assay. […] Concentrations are nominal. […]
control cells (MDCKII-CAT-Fin) applying 2- and 20-minute incubation periods, measured in SLC transporter substrate […]
Compound Nominal In MATE1 Fold

[2] = biological target: T2, human BCRP (Homo sapiens, UniProt Q9UNQ0); details: E3S probe; for ATP dependent transport / Relative ATP dependent transport: mean (n=3) ± SD
T2 sequence (Q9UNQ0 1-655): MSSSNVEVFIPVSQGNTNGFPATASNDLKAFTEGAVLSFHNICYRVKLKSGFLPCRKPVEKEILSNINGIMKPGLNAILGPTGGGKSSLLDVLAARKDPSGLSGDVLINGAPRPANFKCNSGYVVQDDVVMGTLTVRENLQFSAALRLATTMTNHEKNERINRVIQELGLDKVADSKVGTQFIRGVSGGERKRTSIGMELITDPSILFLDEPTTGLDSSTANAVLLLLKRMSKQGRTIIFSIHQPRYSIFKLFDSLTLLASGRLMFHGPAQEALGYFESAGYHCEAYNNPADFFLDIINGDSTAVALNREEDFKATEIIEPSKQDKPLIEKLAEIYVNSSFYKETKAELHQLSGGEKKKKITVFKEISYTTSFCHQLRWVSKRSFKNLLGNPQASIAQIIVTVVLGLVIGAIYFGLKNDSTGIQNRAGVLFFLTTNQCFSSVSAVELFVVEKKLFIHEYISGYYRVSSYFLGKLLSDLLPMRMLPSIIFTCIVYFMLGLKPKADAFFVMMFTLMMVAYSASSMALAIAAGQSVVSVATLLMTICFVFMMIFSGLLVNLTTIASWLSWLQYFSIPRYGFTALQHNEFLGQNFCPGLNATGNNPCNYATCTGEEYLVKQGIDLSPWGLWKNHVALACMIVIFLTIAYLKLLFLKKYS
Protocol: (§1) The incubations were carried out in the presence of 4 mM ATP or AMP to distinguish between transporter-mediated uptake and passive diffusion into the vesicles. […] Afterwards, the reaction mixtures were pre-incubated for 15 min at 37 °C for MRP1 or at 32 °C for BCRP, MDR1 and MRP4, respectively. The transporter assay was initiated through the addition of 25 μL of pre-warmed 12 mM MgATP (or 12 mM AMP in assay buffer as a background control). The reactions were quenched through the addition of 200 μL of ice-cold washing buffer and immediate filtration via glass fiber filters mounted onto a 96-well plate (filter plate). The filters were washed (5 × 200 μL of ice-cold washing buffer) and dried, and the amount of probe substrate inside the filtered vesicles was determined using LSC. The experiments were conducted in triplicate.
(§2) Calculation of ATP-dependent transport and inhibition for vesicular transport inhibition
(§3) For all wells the amount of the translocated probe substrate was determined in counts per minute (cpm).
(§4) ATP-dependent transport (pmol/mg protein/min) is calculated for each concentration using the following
𝐴𝑐𝑐𝐴𝑇𝑃 ∙ 𝑉 ∙ 𝐶𝐶 𝐴𝑐𝑐𝐴𝑀𝑃 ∙𝑉 ∙𝐶𝐶
(§5) 𝐴𝑇𝑃 − 𝑑𝑒𝑝𝑒𝑛𝑑𝑒𝑛𝑡 𝑎𝑐𝑐𝑢𝑚𝑢𝑙𝑎𝑡𝑖𝑜𝑛 = ( 𝑇𝐶𝑃𝑀 𝑠𝑢𝑏) − ( 𝑇𝐶𝑃𝑀 𝑠𝑢𝑏)
(§6) • AccATP: probe substrate accumulation with ATP (cpm)
(§7) • AccAMP: probe substrate accumulation with AMP (cpm)
(§8) • Tcpm: cpm in dosing solution V: volume per well (µL)
(§9) • CCsub: probe substrate concentration (µM)
• Prot: total protein per well (mg)
• t: incubation time (min)
(§10) Relative ATP-dependent transport (%) values were calculated using the following equation:
(§11) 𝑅𝑒𝑙𝑎𝑡𝑖𝑣𝑒 𝐴𝑇𝑃 − 𝑑𝑒𝑝𝑒𝑛𝑑𝑒𝑛𝑡 𝑡𝑟𝑎𝑛𝑠𝑝𝑜𝑟𝑡 (%) = 𝐴 − 𝐵 ∙ 100
(§12) • A: amount of translocated substrate in the presence of test substance (TS) and ATP
(§13) • B: amount of translocated substrate in the presence of test substance (TS) and AMP
(§14) • C: amount of translocated substrate in the presence of solvent and ATP
(§15) • D: amount of translocated substrate in the presence of solvent and AMP
(§16) Relative inhibition (%) is calculated by setting probe substrate transport in the absence of test substance as
(§17) 𝑅𝑒𝑙𝑎𝑡𝑖𝑣𝑒 𝑖𝑛ℎ𝑖𝑏𝑖𝑡𝑖𝑜𝑛 (%) = 𝐴𝑐𝑐𝑆𝑝𝑒𝑐𝑖𝑓𝑖𝑐,𝑥 ∙100
(§18) • Accspecific,x: transporter specific accumulation for a given sample (pmol/mg/min)
(§19) • Accspecific,vehicle: transporter specific accumulation for a solvent control (pmol/mg/min)
Data are expressed as m ean
measured in the vesicular transport inhibition assay.
Nominal ATP Relative ATP Relative
(§20) Compound concentration [µM] dependent transport dependent transport inhibition [%]
[pmol/mg/min] [% of control]
Data are expressed as mean (n=3) ± SD.

[3] = biological target: MDR1 (Homo sapiens, UniProt P08183); details: for Relative inhibition / ATP dependent transport / Relative ATP dependent transport: NMQ probe; for ATP dependent transport / Relative ATP dependent transport: mean (n=3) ± SD
Sequence of MDR1 (P08183 whole entry): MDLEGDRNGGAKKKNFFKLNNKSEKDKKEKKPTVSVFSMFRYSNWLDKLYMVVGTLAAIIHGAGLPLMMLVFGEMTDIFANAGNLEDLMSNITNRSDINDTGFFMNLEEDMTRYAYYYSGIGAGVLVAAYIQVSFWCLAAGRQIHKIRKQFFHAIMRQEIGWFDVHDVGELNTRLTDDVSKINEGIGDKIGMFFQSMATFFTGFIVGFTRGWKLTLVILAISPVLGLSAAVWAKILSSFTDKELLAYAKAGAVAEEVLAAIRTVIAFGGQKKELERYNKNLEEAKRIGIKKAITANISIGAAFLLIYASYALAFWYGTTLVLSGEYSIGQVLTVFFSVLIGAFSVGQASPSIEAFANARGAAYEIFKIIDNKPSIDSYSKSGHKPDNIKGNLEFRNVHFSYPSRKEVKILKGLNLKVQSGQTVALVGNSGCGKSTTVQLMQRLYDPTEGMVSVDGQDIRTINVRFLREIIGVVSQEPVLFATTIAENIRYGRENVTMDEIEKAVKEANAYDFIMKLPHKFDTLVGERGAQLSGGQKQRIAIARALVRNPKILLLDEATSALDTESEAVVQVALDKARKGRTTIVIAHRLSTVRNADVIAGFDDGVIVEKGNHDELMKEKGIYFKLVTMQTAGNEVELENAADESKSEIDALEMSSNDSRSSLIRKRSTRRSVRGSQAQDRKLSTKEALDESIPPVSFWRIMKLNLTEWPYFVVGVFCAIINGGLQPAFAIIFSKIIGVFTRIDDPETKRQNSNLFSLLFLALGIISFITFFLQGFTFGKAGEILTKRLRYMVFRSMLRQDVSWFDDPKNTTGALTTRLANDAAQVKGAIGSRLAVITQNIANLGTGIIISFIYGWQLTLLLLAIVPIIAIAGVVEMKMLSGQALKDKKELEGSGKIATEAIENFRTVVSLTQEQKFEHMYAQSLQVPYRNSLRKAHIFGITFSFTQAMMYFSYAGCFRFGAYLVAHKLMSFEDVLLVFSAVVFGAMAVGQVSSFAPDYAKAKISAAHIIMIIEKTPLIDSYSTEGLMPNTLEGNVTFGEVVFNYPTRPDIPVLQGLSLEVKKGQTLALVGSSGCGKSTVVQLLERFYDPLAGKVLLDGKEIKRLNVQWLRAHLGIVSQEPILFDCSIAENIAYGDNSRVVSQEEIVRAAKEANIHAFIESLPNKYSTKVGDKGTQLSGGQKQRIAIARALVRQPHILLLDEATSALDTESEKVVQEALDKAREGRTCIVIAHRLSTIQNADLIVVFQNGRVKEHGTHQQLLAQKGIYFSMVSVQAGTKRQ
Protocol: as §1, §2, §3, §4
𝐴𝑐𝑐𝐴𝑇𝑃 ∙ 𝑉 ∙ 𝐶𝐶 𝐴𝑐𝑐𝐴𝑀𝑃 ∙𝑉 ∙𝐶𝐶
as §5, §6, §7, §8, §9
• Prot: total protein per well (mg)
• t: incubation time (min)
as §10, §11, §12, §13, §14, §15, §16, §17, §18, §19
Data are expressed as mean (n=3)
N-methyl quinidine (NMQ) measured in the vesicular transport inhibition assay.
Nominal ATP Relative ATP Relative
as §20
[pmol/mg/min] [% of control]
Data are expressed as mean (n=3) ± SD.

[3H]C(c1ccc2ccccc2c1)C([3H])(NC(=O)C1CCC(CNC(=O)CN2CCN(CC(=O)[O-])CCN(CC(=O)[O-])CCN(CC(=O)[O-])CC2)CC1)C(=O)NCCCCC(NC(=O)NC(CCC(=O)O)C(=O)O)C(=O)O.[Lu+3] (stereo not drawn) [([α,β-^3H]Nal)Lu-PSMA-617]
Accumulation in MATE1 transporter expressing cells ([1]; 0.03 µM nominal, 2 min): 0.07 ± 0.01 pmol/mg protein
Accumulation in control cells ([1]; 0.03 µM nominal, 2 min): 0.12 ± 0.01 pmol/mg protein
Accumulation, active transport ([1]; 0.03 µM nominal, 2 min): -0.05 ± 0.02 pmol/mg protein
Fold accumulation ([1]; 0.03 µM nominal, 2 min): 0.60
Accumulation in MATE1 transporter expressing cells ([1]; 0.03 µM nominal, 20 min): 0.09 ± 0.00 pmol/mg protein
Accumulation in control cells ([1]; 0.03 µM nominal, 20 min): 0.19 ± 0.02 pmol/mg protein
Accumulation, active transport ([1]; 0.03 µM nominal, 20 min): -0.10 ± 0.02 pmol/mg protein
Fold accumulation ([1]; 0.03 µM nominal, 20 min): 0.49
Accumulation in MATE1 transporter expressing cells ([1]; 0.30 µM nominal, 2 min): 0.67 ± 0.05 pmol/mg protein
Accumulation in control cells ([1]; 0.30 µM nominal, 2 min): 0.82 ± 0.11 pmol/mg protein
Accumulation, active transport ([1]; 0.30 µM nominal, 2 min): -0.15 ± 0.12 pmol/mg protein
Fold accumulation ([1]; 0.30 µM nominal, 2 min): 0.81
Accumulation in MATE1 transporter expressing cells ([1]; 0.30 µM nominal, 20 min): 0.77 ± 0.12 pmol/mg protein
Accumulation in control cells ([1]; 0.30 µM nominal, 20 min): 1.02 ± 0.12 pmol/mg protein
Accumulation, active transport ([1]; 0.30 µM nominal, 20 min): -0.26 ± 0.17 pmol/mg protein
Fold accumulation ([1]; 0.30 µM nominal, 20 min): 0.75
Substrate assessment (MATE1) ([1]; 0.03, 0.30 µM, 2, 20 min): no in vitro substrate
Max. transporter-specific fold accumulation, without inhibitor ([1]; 2 min, 0.3 µM): 0.81
Relative inhibition ([2]; test substance 0.30 µM nominal): 1%
ATP dependent transport ([2]; test substance 0.30 µM nominal): 23285.00 ± 769.03 pmol/mg/min
Relative ATP dependent transport ([2]; test substance 0.30 µM nominal): 98.5 ± 3.67 % of control
Relative inhibition ([2]; test substance 3.00 µM nominal): 0%
ATP dependent transport ([2]; test substance 3.00 µM nominal): 23687.00 ± 869.33 pmol/mg/min
Relative ATP dependent transport ([2]; test substance 3.00 µM nominal): 100.22 ± 4.06 % of control
Inhibitor assessment (MDR1) ([3]; 0.30 and 3.00 µM, inhibition >20% defined as significant): no inhibitor
Relative inhibition ([3]; test substance 0.30 µM nominal): 8%
ATP dependent transport ([3]; test substance 0.30 µM nominal): 4902.67 ± 183.91 pmol/mg/min
Relative ATP dependent transport ([3]; test substance 0.30 µM nominal): 91.93 ± 3.56 % of control
Relative inhibition ([3]; test substance 3.00 µM nominal): -5%
ATP dependent transport ([3]; test substance 3.00 µM nominal): 5625.67 ± 230.64 pmol/mg/min
Relative ATP dependent transport ([3]; test substance 3.00 µM nominal): 105.48 ± 4.44 % of control
